According to patent publication US20140328951A1, “Composition for Preventing and Treating Vision Deterioration and Age-Related Macular Degeneration through Retinal Repair Using Ginseng/Red Ginseng Extracts and Ginsenoside” (GBIOMIX. CO., LTD., priority 2011, published 2014):

Key:
[1] = tested on: Retinal Pigment Epithelium (RPE) of Pig Eyes; experiment: Release of MMPs from RPE of pig eyecups (gelatin zymography); type: cell-based; conditions: pig eyecup
Method: Pig whole eyecup preparations of RPE were used in these experiments. Standard buffer for incubations utilised […] supplemented with foetal calf serum and antibiotics. Eyecups were incubated in this basal medium as control and in medium containing ginseng extract. Following a 6-24 hour incubation, the incubating medium was collected and subjected to gelatin zymography to analyse the type and level of MMP species present. In control medium, both pro- and active MMP 2&9 species are released continuously from the RPE (FIG. 7). […] This effect of KRG is conducive for regenerating Bruch's membrane. […]

human Bruch's membrane = experiment: Hydraulic conductivity of Bruch's membrane in open-type Ussing chambers; conditions: 24 hours incubation
Method: Bruch's samples were mounted in open-type Ussing chambers and perfused with Tris-HCl buffer. Eluted samples (fluid coming through Bruch's membrane) were collected and measured for fluid transport. Control was perfused with Tris-HCl buffer whilst others were perfused with ginseng fractions for 24 hours.
Transport was tested as described in Example 3, and measured after 24 hours incubation with ginsenosides.
Transport was tested as described in Example 3, and measured after 24 hours incubation with 10% red ginseng extract.

[2] = 6-24 hour incubation, gelatin zymography, Ginseng extract at 10%

## CC(C)=CCC[C@](C)(O[C@@H]1O[C@H](CO)[C@@H](O)[C@H](O)[C@H]1O)[C@H]1CC[C@]2(C)[C@@H]1[C@H](O)C[C@@H]1[C@@]3(C)CC[C@H](O)C(C)(C)[C@@H]3CC[C@]12C [Compound K, 20-O-β-d-glucopyranosyl-20(S)-protopanaxadiol]
[1]; [2]
  Release of active MMP2 from the RPE: consistently increased
  Release of pro-MMP2 from the RPE: consistently increased
  Release of pro-MMP9 from the RPE: consistently increased
Human Bruch's membrane; 190 ug/ml
  Effect on hydraulic conductivity of human Bruch's membrane (in words): increased hydraulic conductivity
Human Bruch's membrane; 190 ug/ml, 5 donors
  Fold change in hydraulic conductivity over basal: 1.45 ± 0.15

## CC(C)=CCC[C@](C)(O[C@@H]1O[C@H](CO[C@@H]2O[C@H](CO)[C@@H](O)[C@H](O)[C@H]2O)[C@@H](O)[C@H](O)[C@H]1O)[C@H]1CC[C@]2(C)[C@@H]1[C@H](O)C[C@@H]1[C@@]3(C)CC[C@H](O[C@@H]4O[C@H](CO)[C@@H](O)[C@H](O)[C@H]4O[C@@H]4O[C@H](CO)[C@@H](O)[C@H](O)[C@H]4O)C(C)(C)[C@@H]3CC[C@]12C [Rb1]
[1]; [2]
  Activated HMW1 level: increased activated HMW1 levels
  Release of active MMP2 from the RPE: did increase
  Release of active MMP9 from the RPE: without effect
  Release of pro-MMP2 from the RPE: did increase
  Release of pro-MMP9 from the RPE: effective in reducing the level of pro-MMP9
Human Bruch's membrane; 200 ug/ml
  Effect on hydraulic conductivity of human Bruch's membrane (in words): increased
Human Bruch's membrane; 200 ug/ml, 1 donor
  Fold change in hydraulic conductivity over basal: 1.27

## CC(C)=CCC[C@](C)(O[C@@H]1O[C@H](CO)[C@@H](O)[C@H](O)[C@H]1O)[C@H]1CC[C@]2(C)[C@@H]1[C@H](O)C[C@@H]1[C@@]3(C)CC[C@H](O)C(C)(C)[C@@H]3[C@@H](O[C@@H]3O[C@H](CO)[C@@H](O)[C@H](O)[C@H]3O)C[C@]12C [Rg1]
[1]; [2]
  Release of pro-MMP9 from the RPE: increased the amount of pro-MMP9
[1]; FIG. 7
  Release of MMPs from the RPE (overall): without effect
Human Bruch's membrane; 200 ug/ml
  Effect on hydraulic conductivity of human Bruch's membrane (in words): increased
Human Bruch's membrane; 200 ug/ml, 1 donor
  Fold change in hydraulic conductivity over basal: 1.2
